Results reported in patent US20250145596A1, “HETEROCYCLIC GLP-1 AGONISTS” (Gasherbrum Bio, Inc., priority 2022, published 2025).

These compounds were tested against T1, GLP-1 Receptor (Homo sapiens, UniProt P43220) (assay: GLP-1R agonist cAMP stimulation assay). Settings: HEK293/CRE-Luc cell line stably expressing the GLP-1 Receptor; 30 min at 37° C.; cAMP dynamic 2 Kit.
T1 construct: host or cells: HEK293/CRE-Luc
Type: cell-based
Outline: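 HEK293 cells stably expressing GLP-1R with CRE-luciferase, 1000 cells/well in DPBS with 0.5 mM IBMX and 0.1% BSA, exposed to compound (½-log dilutions) for 30 min at 37 °C. cAMP measured by HTRF (665/615 nm) after 1 h at room temperature; % activity scaled between vehicle and maximal control.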

T1 sequence (P43220 24-463): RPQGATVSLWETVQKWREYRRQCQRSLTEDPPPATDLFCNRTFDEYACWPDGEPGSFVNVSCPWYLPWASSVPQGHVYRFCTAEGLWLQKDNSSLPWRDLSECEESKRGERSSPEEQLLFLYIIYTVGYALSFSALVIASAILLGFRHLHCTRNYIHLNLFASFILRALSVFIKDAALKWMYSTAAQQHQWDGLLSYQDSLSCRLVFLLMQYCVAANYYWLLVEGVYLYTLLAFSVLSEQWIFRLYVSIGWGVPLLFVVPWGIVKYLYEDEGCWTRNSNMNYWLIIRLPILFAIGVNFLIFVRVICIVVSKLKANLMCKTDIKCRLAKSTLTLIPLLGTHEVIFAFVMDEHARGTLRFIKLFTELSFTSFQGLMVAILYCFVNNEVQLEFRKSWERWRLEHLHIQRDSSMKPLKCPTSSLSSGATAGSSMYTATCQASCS

Structure (SMILES)	EC50 [nM]
C[C@]1(c2ccc(Cl)cc2F)Oc2cccc(C3CCN(Cc4ncc(C5CC5C(=O)O)cc4CC4(C#N)CC4)CC3)c2O1 (stereo partly drawn) [Example 67, 2-(6-((4-((S)-2-(4-chloro-2-fluorophenyl)-2-methylbenzo[d][1,3]dioxol-4-yl)piperidin-1-yl)methyl)-5-((1-cyanocyclopropyl)methyl)pyridin-3-yl)cyclopropane-1-carboxylic acid]	1 to 100
C[C@]1(c2ccc(Cl)cn2)Oc2cccc(C3CCN(Cc4ncc(-c5nnn[nH]5)cc4CC4(C#N)CC4)CC3)c2O1 [Example 75]	< 1
C[C@]1(c2ccc(Cl)cn2)Oc2cccc(C3CCN(Cc4ncc(-c5noc(=O)[nH]5)cc4CC4(C#N)CC4)CC3)c2O1 [Example 77]	< 1
CC1(c2ccccc2F)Oc2ccc(F)c(C3CCN(Cc4ncc(-c5nnc(C(F)(F)F)[nH]5)cc4CC4(C#N)CC4)CC3)c2O1 (stereo not shown) [Example 80]	1 to 100
N#CC1(Cc2cc(-c3noc(=O)[nH]3)cnc2CN2CCC(c3cccc(OCc4ccc(Cl)cc4F)n3)CC2)CC1 [Example 82]	1 to 100
C[C@H]1CN(c2ccnc(OCc3ccc(Cl)cc3F)n2)CCN1Cc1ncc(-c2nnc(C(F)(F)F)[nH]2)cc1CC1(C#N)CC1 [Example 91]	1 to 100
CN1CCC(Cc2cc(-c3nnc(C(F)(F)F)[nH]3)cnc2CN2CCC(c3cccc4c3O[C@@](C)(c3ccc(Cl)cc3F)O4)CC2)C1=O (stereo partly shown) [Example 92]	1 to 100
C[C@]1(c2ccc(Cl)cc2F)Oc2cccc(C3CCN(Cc4ncc(-c5nnc(C(F)(F)F)[nH]5)cc4C#N)CC3)c2O1 [Example 93]	1 to 100
Cc1cc(-c2noc(=O)[nH]2)cnc1CN1CCC(c2cccc(OCc3ccc(Cl)cc3F)n2)CC1 [Example 95]	> 100
Cc1cc(CN2CCC(c3cccc4c3OC(C)(c3ccc(Cl)cc3F)O4)CC2)ncc1-c1nnn[nH]1 (stereo not shown) [Example 96]	> 100
Cc1nc(-c2cnc(CN3CCC(c4cccc5c4OC(C)(c4ccc(Cl)cc4F)O5)CC3)c(C)c2)no1 (stereo not shown) [Example 97]	> 100
Cc1cc(-c2cnn(C)c2)cnc1CN1CCC(c2cccc(OCc3ccc(Cl)cc3F)n2)CC1 [Example 99]	> 100

Other lines, results leading:

EC50 [nM]	Structure (SMILES)
< 1	N#CC1(Cc2cc(-c3nnc(C(F)(F)F)[nH]3)cnc2CN2CCC(c3cccc(OCc4ccc(Cl)c5ccoc45)n3)CC2)CC1 [Example 64, 1-((2-((4-(6-((4-chlorobenzofuran-7-yl)methoxy)pyridin-2-yl)piperidin-1-yl)methyl)-5-(5-(trifluoromethyl)-4H-1,2,4-triazol-3-yl)pyridin-3-yl)methyl)cyclopropane-1-carbonitrile]
< 1	Cc1ccc(C2(C)Oc3cccc(C4=CCN(Cc5ncc(-c6nnc(C(F)(F)F)[nH]6)cc5CC5(C#N)CC5)CC4)c3O2)c(Cl)c1 (stereo not shown) [Example 65, 1-((2-((4-(2-(2-chloro-4-methylphenyl)-2-methylbenzo[d][1,3]dioxol-4-yl)-3,6-dihydropyridin-1(2H)-yl)methyl)-5-(5-(trifluoromethyl)-4H-1,2,4-triazol-3-yl)pyridin-3-yl)methyl)cyclopropane-1-carbonitrile]
< 1	CC1(c2ccc(Cl)cc2F)Oc2cccc(C3=CCN(Cc4ncc(-c5nnc(C(F)(F)F)[nH]5)cc4CC4(C#N)CC4)CC3)c2O1 (stereo not shown) [Example 66, 1-((2-((4-(2-(4-chloro-2-fluorophenyl)-2-methylbenzo[d][1,3]dioxol-4-yl)-3,6-dihydropyridin-1(2H)-yl)methyl)-5-(5-(trifluoromethyl)-4H-1,2,4-triazol-3-yl)pyridin-3-yl)methyl)cyclopropane-1-carbonitrile]
< 1	C[C@]1(c2ccc(Cl)cc2F)Oc2cccc(C3CCN(Cc4ncc(-c5nnn[nH]5)cc4CC4(C#N)CC4)CC3)c2O1 [Example 71]
< 1	C[C@]1(c2ccc(Cl)cc2F)Oc2cccc(C3CCN(Cc4ncc(-c5noc(=O)[nH]5)cc4CC4(C#N)CC4)CC3)c2O1 [Example 73]
1 to 100	C[C@]1(c2ccc(Cl)cc2F)Oc2cccc(C3CCN(Cc4ncc(-c5nnc(C(F)(F)F)[nH]5)cc4CC4CCOC4)CC3)c2O1 (stereo partly shown) [Example 79]
1 to 100	COC(C)Cc1cc(-c2nnc(C(F)(F)F)[nH]2)cnc1CN1CCC(c2cccc3c2O[C@@](C)(c2ccc(Cl)cc2F)O3)CC1 (stereo partly shown) [Example 81]
1 to 100	N#CC1(Cc2cc(-c3nnc(C(F)(F)F)[nH]3)cnc2CN2CCN(c3ccnc(OCc4ccc(Cl)cc4F)n3)CC2)CC1 [Example 83]
1 to 100	COCC1(Cc2cc(-c3nnc(C(F)(F)F)[nH]3)cnc2CN2CCC(c3cccc4c3OC(C)(c3ccc(Cl)cn3)O4)CC2)CC1 (stereo not shown) [Example 85]
1 to 100	N#CC1(Cc2cc(-c3nnc(C(F)(F)F)[nH]3)cnc2CN2CCC(Oc3ccnc(Cc4ccc(Cl)cc4F)n3)CC2)CC1 [Example 86]
1 to 100	CS(=O)(=O)Cc1cc(-c2nnc(C(F)(F)F)[nH]2)cnc1CN1CCC(Oc2cccc(Cc3ccc(Cl)cc3F)n2)CC1 [Example 87]
1 to 100	COCCc1cc(-c2nnc(C(F)(F)F)[nH]2)cnc1CN1CCC(c2cccc3c2O[C@@](C)(c2ccc(Cl)cn2)O3)CC1 [Example 89]
1 to 100	Cc1cc(-c2nnc(C(F)(F)F)[nH]2)cnc1CN1CCC(c2cccc(OCc3ccc(Cl)cc3F)n2)CC1 [Example 90]
1 to 100	Cc1cc(-c2cn(C)nn2)cnc1CN1CCC(c2cccc3c2OC(C)(c2ccc(Cl)cc2F)O3)CC1 (stereo not shown) [Example 94]
> 100	CC1(c2ccc(Cl)cc2F)Oc2cccc(C3CCN(Cc4ncc(-c5nnn[nH]5)cc4C(F)(F)F)CC3)c2O1 (stereo not shown) [Example 98]
> 100	Cc1cc(-c2cnn(C)c(=O)c2)cnc1CN1CCC(c2cccc(OCc3ccc(Cl)cc3F)n2)CC1 [Example 100]
